This is an account of results in US8835462B2, “Macrocyclic picolinamides as fungicides” (Dow AgroSciences LLC, priority 2012, dated 2014).

Where two headings read alike, the source gives them in different places.

Data set [1] relates to Mycosphaerella graminicola; Anamorph: Septoria tritici. The experiment in a line: Leaf blotch of wheat (SEPTTR) fungicidal activity on wheat seedlings. It is filed as in vivo. As to conditions: Zymoseptoria tritici. The procedure:
Evaluation of Fungicidal Activity: Leaf Blotch of Wheat (Mycosphaerella Graminicola; Anamorph: Septoria tritici; Bayer Code […]) Technical grades of materials were dissolved in acetone, which were then mixed with nine volumes of water containing 110 ppm Triton X-100. The fungicide solutions were applied onto wheat seedlings using an automated booth sprayer to run-off. All sprayed plants were allowed to air dry prior to further handling. Wheat plants (variety Yuma) were grown from seed in a greenhouse in 50% mineral soil/50% soil-less Metro mix until the first leaf was fully emerged, with 7-10 seedlings per pot. These plants were inoculated with an aqueous spore suspension of Septoria tritici either prior to or after fungicide treatments. After inoculation the plants were kept in 100% relative humidity (one day in a dark dew chamber followed by two to three days in a lighted dew chamber at 20° C.) to permit spores to germinate and infect the leaf. The plants were then transferred to a greenhouse set at 20° C. for disease to develop. When disease symptoms were fully expressed on the 1st leaves of untreated plants, infection levels were assessed on a scale of 0 to 100 percent disease severity. Percent disease control was calculated using the ratio of disease severity on treated plants relative to untreated plants.

For data set [2], the system named is Puccinia triticina. The experiment in a line: Wheat brown rust (PUCCRT) fungicidal activity on wheat seedlings. The data set is classed as in vivo. The protocol:
Technical grades of materials were dissolved in acetone, which were then mixed with nine volumes of water containing 110 ppm Triton X-100. The fungicide solutions were applied onto wheat seedlings using an automated booth sprayer to run-off. All sprayed plants were allowed to air dry prior to further handling. Wheat plants (variety Yuma) were grown from seed in a greenhouse in 50% mineral soil/50% soil-less Metro mix until the first leaf was fully emerged, with 7-10 seedlings per pot. These plants were inoculated with an aqueous spore suspension of Septoria tritici either prior to or after fungicide treatments. After inoculation the plants were kept in 100% relative humidity (one day in a dark dew chamber followed by two to three days in a lighted dew chamber at 20° C.) to permit spores to germinate and infect the leaf. The plants were then transferred to a greenhouse set at 20° C. for disease to develop. When disease symptoms were fully expressed on the 1st leaves of untreated plants, infection levels were assessed on a scale of 0 to 100 percent disease severity. Percent disease control was calculated using the ratio of disease severity on treated plants relative to untreated plants. Evaluation of Fungicidal Activity: Wheat Brown Rust (Puccinia triticina; Synonym: Puccinia recondita f. sp. tritici; Bayer Code PUCCRT) Wheat plants (variety Yuma) were grown from seed in a greenhouse in 50% mineral soil/50% soil-less Metro mix until the first leaf was fully emerged, with 7-10 seedlings per pot. These plants were inoculated with an aqueous spore suspension of Puccinia triticina either prior to or after fungicide treatments. After inoculation the plants were kept in a dark dew room at 22° C. with 100% relative humidity overnight to permit spores to germinate and infect the leaf. The plants were then transferred to a greenhouse set at 24° C. for disease to develop. Fungicide formulation, application and disease assessment followed the procedures as described in the Example A.

Data set [3] concerns Puccinia triticina. Briefly: Fungicide mobility (dropline mobility test), wheat brown rust (PUCCRT). Particulars: 1 ug/leaf, disease-free zone as percent of distance from marked line to leaf tip; for Dropline Mobility Test PUCCRT 1 DPM: 1 Day Protectant Mobility. The data set is classed as in vivo. The protocol:
Evaluation of Fungicide Mobility: Wheat Brown Rust (Puccinia Triticina; Synonym: Puccinia recondita f. sp. Tritici; Bayer Code PUCCRT):
“Yuma” wheat seedlings were used in the test. One mg of compound was dissolved in 9 μl of EC blank (emulsifiable concentrate) and 500 μl of acetone. Acetone was then evaporated overnight by leaving the vial open in a fume hood. Two milliliters of water containing 110 ppm Triton X-100 was added to each vial to prepare application solutions. A […] drop of formulated material was applied to a marked line on the adaxial surface 5 cm from the leaf tip of the primary leaves. The primary leaves were kept in a horizontal position. Each treatment had 6 replicates. Plants were inoculated with PUCCRT 1-day after (1DPM) or 3-day prior to (3DCM) compound applications. When rust was fully expressed on primary leaves on control plants, the zone of treated leaves that was disease-free in the acropetal direction was measured with a ruler and converted to percent of the distance from marked line to leaf tip.

Setting [4] is: 24 h, 1 Day Protectant, read-out: Disease Control SEPTTR 1 DP.
[5] abbreviates: 72 h, 3 Day Curative, read-out: Disease Control SEPTTR 3 DC.
The mark [6] stands for this setting: 24 h, 1 Day Protectant, read-out: Disease Control PUCCRT 1 DP.
Where [7] appears, read: 72 h, 3 Day Curative, read-out: Disease Control PUCCRT 3 DC.

The term melting point denotes the temperature of the solid-liquid transition. `CCCC(C)O[C@@H]1[C@@H](Cc2ccccc2)COC[C@H](NC(=O)c2nccc(OC)c2O)C(=O)O[C@H]1C` (stereo partly shown) [Compound 19] came in with a melting point of 52 to 56 °C. Moreover, in data set [1] (setting [4]), the pest or weed control at 100 ppm was 80 to 100%. The pest or weed control at 100 ppm in data set [1] (setting [5]) lay within 80 to 100%. For the same compound, the pest or weed control at 100 ppm in data set [2] (setting [6]) was 80 to 100%. Moreover, in data set [2] (setting [7]), the pest or weed control at 100 ppm lay within 80 to 100%. Also, the “Dropline Mobility Test PUCCRT 1 DPM” value in data set [3] is reported as “B (More than 0-Less than 80)”.

On to `CCCCCO[C@@H]1[C@@H](Cc2ccccc2)COC[C@H](NC(=O)c2nccc(OC)c2O)C(=O)O[C@H]1C` [Compound 21], for which the melting point lay in the range of 51 to 56 °C. Besides, the pest or weed control at 100 ppm in data set [1] (setting [4]) lay in the range of 0 to 80%. In addition, in data set [1] (setting [5]), the pest or weed control at 100 ppm was 0 to 80%. For the same compound, the pest or weed control at 100 ppm in data set [2] (setting [6]) is 80 to 100%. Moreover, the pest or weed control at 100 ppm in data set [2] (setting [7]) lay within 0 to 80%. The “Dropline Mobility Test PUCCRT 1 DPM” value in data set [3] is reported as “B (More than 0-Less than 80)”.

In turn, `CCCO[C@@H]1[C@@H](Cc2ccccc2)COC[C@H](NC(=O)c2nccc(OC)c2O)C(=O)O[C@H]1C` [Compound 17] came in with a melting point of 102 to 104 °C. The pest or weed control at 100 ppm in data set [1] (setting [4]) is 80 to 100%. For the same compound, the pest or weed control at 100 ppm in data set [1] (setting [5]) fell in the range of 80 to 100%. Besides, the pest or weed control at 100 ppm in data set [2] (setting [6]) is 80 to 100%. The pest or weed control at 100 ppm in data set [2] (setting [7]) is 80 to 100%. In data set [3], the “Dropline Mobility Test PUCCRT 1 DPM” value is on record as “B (More than 0-Less than 80)”. Besides, the “Dropline Mobility Test PUCCRT 3 DCM” value in data set [3] (3 Day Curative Mobility) is “B (More than 0-Less than 80)”.
